Data on four compounds can be found in publication PMC5379747, “Structural basis for a novel type of cytokinin-activating protein” (Scientific Reports, 2017).

In experiment [1] the target is T1, Cg1261 (CgLOGII, CgLOGIIF) (Corynebacterium glutamicum, UniProt Q8NRE2).
T1 construct: gene Cgl1110; full length, pET30a with C-terminal 6xHis, E. coli BL21(DE3), hexamer; residues 1-39 disordered in crystal
T1 sequence (Q8NRE2 1-256): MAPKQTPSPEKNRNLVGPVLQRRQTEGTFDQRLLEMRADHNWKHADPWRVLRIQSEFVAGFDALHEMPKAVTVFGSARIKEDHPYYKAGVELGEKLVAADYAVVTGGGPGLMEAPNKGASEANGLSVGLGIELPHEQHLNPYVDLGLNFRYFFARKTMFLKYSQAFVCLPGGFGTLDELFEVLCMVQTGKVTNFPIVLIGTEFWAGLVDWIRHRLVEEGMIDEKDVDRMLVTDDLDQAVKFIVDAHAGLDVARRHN
Briefly: TLC detection of adenine released from AMP. The note with it: 20 mM AMP, 36 mM Tris-HCl pH 8.0, 23 μM enzyme, 30 °C. The experiment is classed as biochemical.

Experiment [2] addresses T2, Cg1261 (CgLOGII, CgLOGIIF) (Corynebacterium glutamicum, UniProt Q8NRE2, F152A).
T2 construct: gene Cgl1110; full length, pET30a with C-terminal 6xHis, E. coli BL21(DE3), hexamer; residues 1-39 disordered in crystal
The experiment can be described thus: TLC detection of adenine released from AMP. The experiment is classed as biochemical. As to conditions: 20 mM AMP, 36 mM Tris-HCl pH 8.0, 23 μM enzyme, 6 h.

The target in experiment [3] is T3, Cg1261 (CgLOGII, CgLOGIIF) (Corynebacterium glutamicum, UniProt Q8NRE2, D177A).
T3 construct: gene Cgl1110; full length, pET30a with C-terminal 6xHis, E. coli BL21(DE3), hexamer; residues 1-39 disordered in crystal
T3 sequence (Q8NRE2 entry or part of it D177A): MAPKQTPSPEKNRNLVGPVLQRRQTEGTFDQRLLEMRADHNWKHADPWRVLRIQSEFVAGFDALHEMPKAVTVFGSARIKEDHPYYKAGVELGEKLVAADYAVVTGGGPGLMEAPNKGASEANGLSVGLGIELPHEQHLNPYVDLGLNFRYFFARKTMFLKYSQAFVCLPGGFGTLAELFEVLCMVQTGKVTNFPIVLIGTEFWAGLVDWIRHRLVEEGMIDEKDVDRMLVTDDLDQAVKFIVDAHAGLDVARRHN
The experiment can be described thus: TLC detection of adenine released from AMP. The experiment is classed as biochemical. The note with it: 20 mM AMP, 36 mM Tris-HCl pH 8.0, 23 μM enzyme, 6 h.

The target of the next experiment is T4, Cg1261ΔDNR (CgLOGIIΔDNR) (Corynebacterium glutamicum, UniProt Q8NRE2).
T4 construct: gene Cgl1110; E. coli expressed, hexamer
The experiment can be described thus: TLC detection of adenine released from AMP. The note with it: 20 mM AMP, 36 mM Tris-HCl pH 8.0, 23 μM enzyme, 30 °C. The experiment is classed as biochemical.

Experiment [4] has as its target T5, Cg1261 (CgLOGII, CgLOGIIF) (Corynebacterium glutamicum, UniProt Q8NRE2, M185A).
T5 construct: gene Cgl1110; full length, pET30a with C-terminal 6xHis, E. coli BL21(DE3), hexamer; residues 1-39 disordered in crystal
Briefly: TLC detection of adenine released from AMP. The experiment is classed as biochemical. As to conditions: 20 mM AMP, 36 mM Tris-HCl pH 8.0, 23 μM enzyme, 6 h.

In another experiment the target is T6, Tt1465 (TtLOGII) (Thermus thermophilus, UniProt Q5SHT6).
T6 construct: gene TTHA1644; recombinant, prepared similarly to CgLOGII; hexamer
T6 sequence (Q5SHT6 1-217): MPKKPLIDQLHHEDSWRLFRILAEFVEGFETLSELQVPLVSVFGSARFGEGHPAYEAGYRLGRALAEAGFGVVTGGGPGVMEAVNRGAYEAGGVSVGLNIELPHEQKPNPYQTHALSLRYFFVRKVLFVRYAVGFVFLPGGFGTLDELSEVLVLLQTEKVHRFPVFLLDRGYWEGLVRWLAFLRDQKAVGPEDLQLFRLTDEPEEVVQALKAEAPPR
Briefly: TLC detection of adenine released from AMP. The experiment is classed as biochemical. The note with it: 20 mM AMP, 36 mM Tris-HCl pH 8.0, 23 μM enzyme, 65 °C.

The target of experiment [5] is T7, Cg1261 (CgLOGII, CgLOGIIF) (Corynebacterium glutamicum, UniProt Q8NRE2, F153A).
T7 construct: gene Cgl1110; full length, pET30a with C-terminal 6xHis, E. coli BL21(DE3), hexamer; residues 1-39 disordered in crystal
T7 sequence (Q8NRE2 entry or part of it F153A): as the sequence (Q8NRE2 entry or part of it D177A) above, with F153A, A177D counted along it
The experiment can be described thus: TLC detection of adenine released from AMP. The experiment is classed as biochemical. The note with it: 20 mM AMP, 36 mM Tris-HCl pH 8.0, 23 μM enzyme, 6 h.

Experiment [6] concerns the target Cg1261 (CgLOGII), full-length, from Corynebacterium glutamicum ATCC 13032 (Corynebacterium glutamicum ATCC 13032). The experiment can be described thus: SEC; analytical, Superdex 200 10/300, 150 mM NaCl, 1 mL of 3 mg/ml; masses from a calibration curve of standards. On the technique in general: Size exclusion chromatography separates by hydrodynamic size, large species first.

Experiment [7] has the same target. Briefly: crystal structure; CgLOGII crystals, space group C222_(1), three molecules in the asymmetric unit; hexamer generated by crystallographic symmetry; 1.95 Å.
Experiment [8] shares this target. The experiment can be described thus: SAXS; in solution, 4 °C, 0.5 ~4.5 mg/mL; molecular mass by the QR method.
Experiment [9] has as its target Cg1261 DNR-truncated (Cg1261ΔDNR) (Corynebacterium glutamicum ATCC 13032). Briefly: SEC; analytical, Superdex 200 10/300, 150 mM NaCl, 1 mL of 3 mg/ml; masses from a calibration curve of standards.
Experiment [10] shares this target. The experiment can be described thus: SAXS; in solution, 4 °C, 0.5 ~4.5 mg/mL; molecular mass by the QR method.
Experiment [11] concerns the target CgLOG (Cg2612) from Corynebacterium glutamicum (Corynebacterium glutamicum). Briefly: SEC; analytical, Superdex 200 10/300, 150 mM NaCl, 1 mL of 3 mg/ml; masses from a calibration curve of standards.

T5 sequence (Q8NRE2 entry or part of it M185A): as the sequence (Q8NRE2 entry or part of it D177A) above, with A177D, M185A counted along it
T2 sequence (Q8NRE2 entry or part of it F152A): as the sequence (Q8NRE2 entry or part of it D177A) above, with F152A, A177D counted along it

Regarding `Nc1ncnc2c1ncn2[C@@H]1O[C@H](COP(=O)(O)O)[C@@H](O)[C@H]1O` [AMP], the “TLC detection of adenine released from AMP” value in experiment [1] is “hydrolyzed AMP into an adenine base and ribose 5-phosphate”; in experiment [2], “such as Phe152, Phe153, and Met185, substituted with alanine still showed the activity”; in experiment [3] it was “Asp177Ala substitution resulted in an almost complete loss of the activity”; at Cg1261ΔDNR (CgLOGIIΔDNR), “Cg1261ΔDNR showed the same level of phosphoribohydrolase activity as Cg1261”; in [4], “such as Phe152, Phe153, and Met185, substituted with alanine still showed the activity”; on Tt1465 (TtLOGII), “Tt1465 hydrolyzed AMP into an adenine base and ribose 5-phosphate”. Besides, in [5], the “TLC detection of adenine released from AMP” value is “such as Phe152, Phe153, and Met185, substituted with alanine still showed the activity”.
Turning to “Cg1261 (CgLOGII), full-length, from Corynebacterium glutamicum ATCC 13032 (enzyme)”, the stoichiometry N in [6], in [7] and in experiment [8] was 6 throughout.
Take “Cg1261 DNR-truncated (Cg1261ΔDNR) (domain or fragment)”: the stoichiometry N in experiment [9] and in experiment [10] was 6 throughout.
The compound “CgLOG (Cg2612) from Corynebacterium glutamicum (enzyme)” yielded a stoichiometry N in experiment [11] of 2.

Usually stoichiometry N stands for a count of units in the complex or per binding partner.
